Data taken from US20230130103A1, “TARGETED PHARMACOLOGICAL THERAPEUTICS IN UVEAL MELANOMA” (Washington University, priority 2017, published 2023).
Starred links: 1 amine or outer side, 2 acyl side, 3 side chain; linkers in the order of their positions; H or OH if unused. Positions of bridges follow the written chain, without caps; N, C: chain ends. Non-standard residues stand in square brackets, D forms with d. Residues, ends and D or L forms follow the SMILES beside them. *: point of attachment. Leu(3R-OH,Nα-propionyl) = CCC(=O)N[C@H](C(=O)*)[C@H](O)C(C)C; X1 = CC(C)[C@@H](O[*:3])[C@H](N[*:1])C(=O)[*:2]; X2 = CC(C)[C@H](O[*:3])[C@@H](N[*:1])C(=O)[*:2]; NMeaThr = CN[C@H](C(=O)O)[C@H](C)O; dPhLac = O=C(O)[C@H](O)Cc1ccccc1; NMeA = CN[C@@H](C)C(=O)O; NMeDha = C=C(NC)C(=O)O

System: 92.1 UM cells
Assay: Gene Set Enrichment Analysis (GSEA) of RNA-Seq data
Format: cell-based, Human
[1] = gene set #CAFFAREL_RESPONSE_TO_THC_DN
[2] = gene set ALCALAY_AML_BY_NPM1_LOCALIZATION_DN
[3] = gene set BASSO_[?]_LYMPHOCYTE_NETWORK
[4] = gene set CHIANG_LIVER_CANCER_SUBCLASS_UNANNOTATED_DN
[5] = gene set CHICAS_RB1_TARGETS_GROWING
[6] = gene set CHICAS_RB1_TARGETS_SENESCENT
[7] = gene set DOUGLAS_[?]_TARGETS_UP
[8] = gene set ELVIDGE_HIF1A_TARGETS_UP
[9] = gene set FERRANDO_T_ALL_WITH_MLL_ENL_FUSION_DN
[10] = gene set FOURNIER_ACINAR_DEVELOPMENT_LATE_DN
[11] = gene set GARCIA_TARGETS_OF_FL[?]_AND_DAX1_DN
[12] = gene set GROSS_HYPOXIA_VIA_ELK3_UP
[13] = gene set GRUETZMANN_PANCREATIC_CANCER_UP
[14] = gene set IVANOVA_HEMATOPOIESIS_LATE_PROGENITOR
[15] = gene set JOHNSTONE_PARVES_TARGETS_2_DN
[16] = gene set KEGG_AMINO_SUGAR_AND_NUCLEOTIDE_SUGAR_METABOLISM
[17] = gene set KEGG_CITRATE_CYCLE_TCA_CYCLE
[18] = gene set KEGG_FC_GAMMA_[?]_MEIATED_PHAGOCYTOSIS
[19] = gene set KEGG_PATHOGENIC_ESCHERICHIA_COLI_INFECTION
[20] = gene set LASTOWSKA_NEUROBLASTOMA_COPY_NUMBER_DN
[21] = gene set MARIADASON_REGULATED_BY_HISTONE_ACETYLATION_DN
[22] = gene set MARTINEZ_RESPONSE_TO_TRABECTEDIN_DN
[23] = gene set MEINHOLD_OVARIAN_CANCER_LOW_GRADE_DN
[24] = gene set ONDER_CDH1_TARGETS_1_DN
[25] = gene set OXFORD_RALA_OR_RALB_TARGETS_UP
[26] = gene set PEART_HDAC_PROLIFERATION_CLUSTER_DN
[27] = gene set PODAR_RESPONSE_TO_ADAPHOSTIN_DN
[28] = gene set PRAMOONIAGO_SOX4_TARGETS_DN
[29] = gene set PUIFFE_INVASION_INHIBITED_BY_ASCITES_UP
[30] = gene set REACTOME_ACTIVATION_OF_CHAPERONE_GENES_BY_XBP15

C=C1C(=O)N[C@@H](C)C(=O)N(C)[C@@H](C)C(=O)N[C@H]([C@@H](OC(=O)[C@@H](NC(=O)CC)[C@H](O)C(C)C)C(C)C)C(=O)N(C)[C@@H]([C@H](C)OC)C(=O)O[C@H](C(C)C)[C@H](NC(C)=O)C(=O)O[C@H](Cc2ccccc2)C(=O)N1C [FR, [(1S)-1-[(3S,6R,9S,12S,18R,21S,22R)-21-acetamido-18-benzyl-3-[(1S)-1-methoxyethyl]-4,9,10,12,16-pentamethyl-15-methylidene-2,5,8,11,14,17,20-heptaoxo-22-propan-2-yl-1,19-dioxa-4,7,10,13,16-pentazacyclodocos-6-yl]-2-methylpropyl] (2S,3R)-3-hydroxy-4-methyl-2-(propanoylamino)pentanoate] (Ac-[X1][dPhLac][NMeDha]A[NMeA][X2](Leu(3R-OH,Nα-propionyl))[NMeaThr](Me); ester 1-C)
ES [1]: 0.6253 | NES [1]: 2.134 | ES [2]: 0.4726 | NES [2]: 2.261 | ES [3]: 0.4691 | NES [3]: 2.175 | ES (gene set BENPORATH_ES_1): 0.3997 | NES (gene set BENPORATH_ES_1): 2.093 | ES (gene set BIOCARTA_RHO_PATHWAY): 0.6245 | NES (gene set BIOCARTA_RHO_PATHWAY): 2.154 | ES [4]: 0.4436 | NES [4]: 2.13 | ES [5]: 0.4131 | NES [5]: 2.057 | ES [6]: 0.4124 | NES [6]: 2.254 | ES (gene set CSR_EARLY_UP.V1_UP): 0.4601 | NES (gene set CSR_EARLY_UP.V1_UP): 2.136 | ES [7]: 0.3969 | NES [7]: 2.179 | ES [8]: 0.5452 | NES [8]: 2.195 | ES [9]: 0.5186 | NES [9]: 2.174 | ES [10]: 0.6475 | NES [10]: 2.082 | ES (gene set GABP_B): 0.419 | NES (gene set GABP_B): 2.063 | ES [11]: 0.4628 | NES [11]: 2.153 | ES [12]: 0.4432 | NES [12]: 2.179 | ES [13]: 0.393 | NES [13]: 2.047 | ES [14]: 0.4037 | NES [14]: 2.155 | ES (gene set JIANG_VHL_TARGETS): 0.4893 | NES (gene set JIANG_VHL_TARGETS): 2.171 | ES [15]: 0.4128 | NES [15]: 2.133 | ES [16]: 0.5976 | NES [16]: 2.088 | ES [17]: 0.6499 | NES [17]: 2.188 | ES [18]: 0.5262 | NES [18]: 2.154 | ES [19]: 0.5693 | NES [19]: 2.167 | ES [20]: 0.3819 | NES [20]: 2.135 | ES (gene set LINSLEY_MIR16_TARGETS): 0.4327 | NES (gene set LINSLEY_MIR16_TARGETS): 2.092 | ES (gene set LIN_APC_TARGETS): 0.5227 | NES (gene set LIN_APC_TARGETS): 2.086 | ES (gene set LY_AGING_PREMATURE_DN): 0.6267 | NES (gene set LY_AGING_PREMATURE_DN): 2.103 | ES [21]: 0.5871 | NES [21]: 2.132 | ES [22]: 0.4324 | NES [22]: 2.184 | ES [23]: 0.7218 | NES [23]: 2.197 | ES (gene set NPS14_DN.V1_DN): 0.4491 | NES (gene set NPS14_DN.V1_DN): 2.133 | ES [24]: 0.4845 | NES [24]: 2.225 | ES [25]: 0.544 | NES [25]: 2.089 | ES (gene set PBC2_EED_UP.V1_DN): 0.4268 | NES (gene set PBC2_EED_UP.V1_DN): 2.076 | ES [26]: 0.4996 | NES [26]: 2.059 | ES (gene set PIC_DCD42_REG_PATHWAY): 0.5968 | NES (gene set PIC_DCD42_REG_PATHWAY): 2.051 | ES (gene set PIC_E2F_PATHWAY): 0.5204 | NES (gene set PIC_E2F_PATHWAY): 2.172 | ES (gene set PIC_FANCONE_PATHWAY): 0.5661 | NES (gene set PIC_FANCONE_PATHWAY): 2.097 | ES (gene set PIC_FCER1_PATHWAY): 0.5656 | NES (gene set PIC_FCER1_PATHWAY): 2.102 | ES (gene set PID_PDGFRB_PATHWAY): 0.4862 | NES (gene set PID_PDGFRB_PATHWAY): 2.232 | ES (gene set PIO_AURORA_A_PATHWAY): 0.6657 | NES (gene set PIO_AURORA_A_PATHWAY): 2.186 | ES (gene set PIO_TCR_PATHWAY): 0.6 | NES (gene set PIO_TCR_PATHWAY): 2.184 | ES [27]: 0.6921 | NES [27]: 2.117 | ES [28]: 0.5652 | NES [28]: 2.158 | ES [29]: 0.5104 | NES [29]: 2.126 | ES (gene set RACTOME_IMMUNE_SYSTEM): 0.3664 | NES (gene set RACTOME_IMMUNE_SYSTEM): 2.063 | ES (gene set RB_P107_0N, L1_UP): 0.4941 | NES (gene set RB_P107_0N, L1_UP): 2.216 | ES [30]: 0.5859 | NES [30]: 2.116
